Experimental data from US9498483B2, “2,3,5-trisubstituted thiophene compounds and uses thereof” (priority 2010, dated 2016).

What was measured:
HCV polymerase = target: T1, HCV polymerase (Hepatitis C virus genotype 1b, UniProt Q9WMX2); experiment: Polymerase assay of Biological Example 1 (IC50 values of Table 3); assay type: biochemical; details: IC50 values of Table 3, polymerase assay of Biological Example 1; read-out: NS5B-enzyme3
T1 construct: (His)6 (C); made in house; host or cells: XL-1 cells (E. coli, by own knowledge)
Excerpt: A number of assays have been published to assess these activities. A general method that assesses the gross increase of HCV virus in culture was disclosed in U.S. Pat. No. 5,738,985 to Miles et al. In vitro assays have been reported in Ferrari et al. Jnl. of Vir., 73:1649-1654, 1999; Ishii et al., Hepatology, 29:1227-1235, 1999; Lohmann et al., Jnl of Bio. Chem., 274:10807-10815, 1999; and Yamashita et al., Jnl. of Bio. Chem., 273:15479-15486, 1998.
WO 97/12033, filed on Sep. 27, 1996, by Emory University, listing C. Hagedorn and A. Reinoldus as inventors, which claims priority to U.S. Provisional Patent Application Ser. No. 60/004,383, filed on September 1995, described an HCV polymerase assay that can be used to evaluate the activity of the of the compounds described herein. Another HCV polymerase assay has been reported by Bartholomeusz, et al., Hepatitis C Virus (HCV) RNA polymerase assay using cloned HCV non-structural proteins; Antiviral Therapy 1996:1 (Supp 4) 18-24.

[1] = tested on: HCV replicon I389luc-ubi-neo/NS3-3′/ET in ET (Huh-lucubineo-ET) cells; experiment: Replicon assay (Biological Example 2), luciferase readout; assay type: cell-based; details: Hepatitis C virus
Description: A cell line, ET (Huh-lucubineo-ET) was used for screening of compounds for inhibiting HCV RNA dependent RNA polymerase. The ET cell line was stably transfected with RNA transcripts harboring a I389luc-ubi-neo/NS3-3′/ET; replicon with firefly luciferase-ubiquitin-neomycin phosphotransferase fusion protein and EMCV-IRES driven NS3-5B polyprotein containing the cell culture adaptive mutations (E1202G; T12801; K1846T) (Krieger at al, 2001 and unpublished). The ET cells were grown in DMEM (Dulbeco's Modified Eagle's Medium), supplemented with 10% fetal calf serum, 2 mM Glutamine, Penicillin (100 IU/mL)/Streptomycin (100 μg/mL), 1× nonessential amino acids, and 250 μg/mL G418 (“Geneticin”). Reagents were all available through Life Technologies (Bethesda, Md.). The cells were plated at 0.5-1.0×10^4 cells/well in the 96 well plates and incubated for 24 hrs before adding test compound. The compounds were added to the cells to achieve a final concentration of 0.1 nM to 50 μM and a final DMSO (dimethylsulfoxide) concentration of 0.5%. Luciferase activity was measured 48 hours later by adding a lysis buffer and the substrate (Catalog number Glo-lysis buffer E2661 and Bright-Glo luciferase system E2620 Promega, Madison, Wis.). Cells should not be too confluent during the assay. Percent inhibition of replication data was plotted relative to no compound control. To determine the EC50 (effective concentration at which 50% of the maximum inhibition was observed), a 10 point, 3-fold serial dilution for each compound was used, which spans a concentration range of […]. EC50 values were calculated by fitting % inhibition at each concentration to the following equation: % inhibition=100%/[(EC50/[I])^b+1] where b was Hill's coefficient.
In other aspects the EC50 was equal to or less than 10 μM. In still other aspects the EC50 was equal to or less than 1 μM.

[2] = ET cells, luciferase activity 48 hours after compound

Row | IC50 (HCV polymerase) | Compound | IC50 ([1]; between 100 nM and 5.0 uM) | IC50 [1, 2]
1 |  | CC1(C)CCN(c2ccc(S(=O)(=O)N3CC(=O)N(c4cc(-c5ccccc5)sc4C(=O)O)[C@H](C4CCCCC4)C3)cn2)C1 [Compound 219, 3-{(R)-2-Cyclohexyl-4-[6-(3,3-dimethyl-pyrrolidin-1-yl)-pyridine-3-sulfonyl]-6-oxo-piperazin-1-yl}-5-phenyl-thiophene-2-carboxylic acid] |  | ≤ 100 nM
2 |  | CN1CCN(c2ccc(-c3ccc(S(=O)(=O)N4CC(=O)N(c5cc(-c6ccccc6)sc5C(=O)O)[C@H](C5CCCCC5)C4)cn3)cn2)CC1 [Compound 224, 3-{(R)-2-Cyclohexyl-4-[6′-(4-methyl-piperazin-1-yl)-[2,3′]bipyridinyl-5-sulfonyl]-6-oxo-piperazin-1-yl}-5-phenyl-thiophene-2-carboxylic acid] |  | ≤ 100 nM
3 | 330 nM | Cc1ccccc1CN1CC(=O)N(c2cc(-c3ccccc3)sc2C(=O)O)[C@H](C2CCCCC2)C1 [Compound 269, 3-[(R)-2-Cyclohexyl-4-(2-methyl-benzyl)-6-oxo-piperazin-1-yl]-5-phenyl-thiophene-2-carboxylic acid] |  | 
4 |  | Cc1oncc1S(=O)(=O)N1CC(=O)N(c2cc(C#CC(C)(C)C)sc2C(=O)O)[C@H](C2CCCCC2)C1 [Compound 240, 3-[(R)-2-Cyclohexyl-4-(5-methyl-isoxazole-4-sulfonyl)-6-oxo-piperazin-1-yl]-5-(3,3-dimethyl-but-1-ynyl)-thiophene-2-carboxylic acid] |  | ≤ 100 nM
5 |  | C[C@@H]1CCCN1c1ccc(S(=O)(=O)N2CC(=O)N(c3cc(-c4ccc(Cl)cc4)sc3C(=O)O)[C@H](C3CCCCC3)C2)cn1 [Compound 201, 5-(4-Chloro-phenyl)-3-{(R)-2-cyc!ohexyl-4-[6-((R)-2-methyl-pyrrolidin-1-yl)-pyridine-3-sulfonyl]-6-oxo-piperazin-1-yl}-thiophene-2-carboxylic acid] |  | ≤ 100 nM
6 | 5.3 nM | CC(C)(C)C#Cc1cc(N2C(=O)C(CCCS(C)(=O)=O)OC[C@H]2C2CCCCC2)c(C(=O)O)s1 (stereo partly drawn) [Compound 306, 3-[(R)-5-Cyclohexyl-2-(3-methanesulfonyl-propyl)-3-oxo-morpholin-4-yl]-5-(3,3-dimethyl-but-1-ynyl)-thiophene-2-carboxylic acid] |  | 
7 | 142 nM | O=C(O)c1sc(-c2ccccc2)cc1N1C(=O)CN(Cc2cccc(F)c2N2CCOCC2)C[C@H]1C1CCCCC1 [Compound 266, 3-[(R)-2-Cyclohexyl-4-(3-fluoro-2-morpholin-4-yl-benzyl)-6-oxo-piperazin-1-yl]-5-phenyl-thiophene-2-carboxylic acid] |  | 
8 | 108 nM | Cc1cccc(CN2CC(=O)N(c3cc(-c4ccccc4)sc3C(=O)O)[C@H](C3CCCCC3)C2)c1 [Compound 263, 3-[(R)-2-Cyclohexyl-4-(3-methyl-benzyl)-6-oxo-piperazin-1-yl]-5-phenyl-thiophene-2-carboxylic acid] |  | 
9 | 538 nM | Cc1cccc(C)c1CN1CC(=O)N(c2cc(-c3ccccc3)sc2C(=O)O)[C@H](C2CCCCC2)C1 [Compound 264, 3-[(R)-2-Cyclohexyl-4-(2,6-dimethyl-benzyl)-6-oxo-piperazin-1-yl]-5-phenyl-thiophene-2-carboxylic acid] |  | 
10 |  | CC1CCN(c2ccc(S(=O)(=O)N3CC(=O)N(c4cc(-c5ccccc5)sc4C(=O)O)C(C4CCCCC4)C3)cn2)CC1 (centres unmarked) [Compound 96, 3-[2-Cyclohexyl-4-(4-methyl-3,4,5,6-tetrahydro-2H-[1,2′]bipyridinyl-5′-sulfonyl)-6-oxo-piperazin-1-yl]-5-phenyl-thiophene-2-carboxylic acid] |  | ≤ 100 nM
11 | 199 nM | O=C(O)c1sc(-c2ccccc2)cc1N1C(=O)CN(Cc2cccc(-n3cccc3)c2)C[C@H]1C1CCCCC1 [Compound 261, 3-[(R)-2-Cyclohexyl-6-oxo-4-(3-pyrrol-1-yl-benzyl)-piperazin-1-yl]-5-phenyl-thiophene-2-carboxylic acid] |  | 
12 |  | O=C(O)c1sc(-c2ccccc2)cc1N1C(=O)CN(S(=O)(=O)c2ccc(-c3ccncc3)nc2)C[C@H]1C1CCCCC1 [Compound 207] | 100 to 5000 nM | 
13 | 19 nM | CN(C)c1ccc(CN2CC(=O)N(c3cc(-c4ccccc4)sc3C(=O)O)[C@H](C3CCCCC3)C2)cc1 [Compound 270, 3-[(R)-2-Cyclohexyl-4-(4-dimethylamino-benzyl)-6-oxo-piperazin-1-yl]-5-phenyl-thiophene-2-carboxylic acid] |  | 
14 |  | O=C(O)c1sc(-c2ccc(F)cc2)cc1N1C(=O)CN(S(=O)(=O)c2ccc(N3CCCCC3)nc2)C[C@H]1C1CCCCC1 [Compound 235, 3-[(R)-2-Cyclohexyl-6-oxo-4-(3,4,5,6-tetrahydro-2H-[1,2′]bipyridinyl-5′-sulfonyl)-piperazin-1-yl]-5-(4-fluoro-phenyl)-thiophene-2-carboxylic acid] |  | ≤ 100 nM
15 | 601 nM | O=C(O)c1sc(-c2ccccc2)cc1N1C(=O)CN(CC2CCCCC2)C[C@H]1C1CCCCC1 [Compound 265, 3-((R)-2-Cyclohexyl-4-cyclohexylmethyl-6-oxo-piperazin-1-yl)-5-phenyl-thiophene-2-carboxylic acid] |  | 
16 | 620 nM | O=C(O)c1sc(-c2ccccc2)cc1N1C(=O)CN(CCc2ccccc2)C[C@H]1C1CCCCC1 [Compound 268, 3-((R)-2-Cyclohexyl-6-oxo-4-phenethyl-piperazin-1-yl)-5-phenyl-thiophene-2-carboxylic acid] |  | 
17 | 3650 nM | CC(C)(C)OC(=O)N1CC(=O)N(c2cc(-c3ccccc3)sc2C(=O)O)[C@H](C2CCCCC2)C1 [Compound 14, (R)-4-(2-Carboxy-5-phenyl-thiophen-3-yl)-3-cyclohexyl-5-oxo-piperazine-1-carboxylic acid tert-butyl ester] |  | 
18 |  | O=C(O)c1sc(-c2ccccc2)cc1N1C(=O)CC[C@H]1C1CCCCC1 [Compound 6, 3-((S)-2-Cyclohexyl-5-oxo-pyrrolidin-1-yl)-5-phenyl-thiophene-2-carboxylic acid] | 100 to 5000 nM | 
19 |  | O=C(O)c1sc(-c2ccc(F)cc2)cc1N1C(=O)CN(S(=O)(=O)c2ccc(N3CC4CC3CO4)nc2)C[C@H]1C1CCCCC1 (stereo partly drawn) [Compound 228, 3-{(R)-2-Cyclohexyl-4-[6-(2-oxa-5-aza-bicyclo[2.2.1]hept-5-yl)-pyridine-3-sulfonyl]-6-oxo-piperazin-1-yl}-5-(4-fluoro-phenyl)-thiophene-2-carboxylic acid] |  | ≤ 100 nM

Row | Compound | IC50 (HCV polymerase) | IC50 ([1]; between 100 nM and 5.0 uM) | IC50 [1, 2]
20 | CC1(NC(=O)OC(C)(C)C)CCN(c2ccc(S(=O)(=O)N3CC(=O)N(c4cc(-c5ccccc5)sc4C(=O)O)[C@H](C4CCCCC4)C3)cn2)CC1 [Compound 153, 3-[(R)-4-(4-tert-Butoxycarbonylamino-4-methyl-3,4,5,6-tetrahydro-2H-[1,2′]bipyridinyl-5′-sulfonyl)-2-cyclohexyl-6-oxo-piperazin-1-yl]-5-phenyl-thiophene-2-carboxylic acid] | 4 nM | 100 to 5000 nM | 
21 | O=C(O)c1sc(-c2ccc(F)cc2)cc1N1C(=O)CN(S(=O)(=O)c2ccc(N3CCCCCC3)nc2)C[C@H]1C1CCCCC1 [Compound 285, 3-[(R)-4-(6-Azepan-1-yl-pyridine-3-sulfonyl)-2-cyclohexyl-6-oxo-piperazin-1-yl]-5-(4-fluoro-phenyl)-thiophene-2-carboxylic acid] | 2 nM |  | ≤ 100 nM
22 | Cc1ccc(-c2cc(N3C(=O)C(C)(O)CCC3C3CCCCC3)c(C(=O)O)s2)cc1 (centres unmarked) [Compound 5, 3-(6-Cyclohexyl-3-hydroxy-3-methyl-2-oxo-piperidin-1-yl)-5-p-tolyl-thiophene-2-carboxylic acid] | 52 nM |  | ≤ 100 nM
23 | 3-[(2S,5R)-5-Cyclohexyl-2-(2,3-dihydroxy-propyl)-2-methyl-3-oxo-morpholin-4-yl]-5-(3,3-dimethyl-but-1-ynyl)-thiophene-2-carboxylic acid [Compound 326] | 882 nM |  | 
